Patent publication US9988395B2, “Antiparasitic compositions and methods utilizing substituted 5,5,7,7-tetramethyl-4,5,6,7-tetrahydrothieno[2,3-C]pyridine derivatives” (THE BOARD OF REGENTS OF THE UNIVERSITY OF TEXAS SYSTEM, priority 2015, dated 2018)
Where two headings read alike, the source gives them in different places.

Columns and labels:
T. cruzi trypomastigotes = assay: Proliferation assay of T. cruzi trypomastigotes inside Human Osteoblasts; assay type: cell-based, Trypanosoma cruzi; conditions: 48 H treatment
Procedure: IC50 is median inhibitory concentration. TI is therapeutic index. […] This example further illustrates positives effects of treatment with the present compounds. […] The negative control was treated with 1% DMSO. The positive control was treated with Amp B at […].

T. cruzi Epimastigotes = assay: Activity against T. cruzi epimastigotes; assay type: cell-based, Trypanosoma cruzi
[1] = test system: L. major Luciferase promastigotes; assay: Antiparasitic activity in L. major Luciferase promastigotes; assay type: cell-based, Leishmania major; conditions: 72 hr
Excerpt: IC50 is median inhibitory concentration. TI is therapeutic index.

| SMILES | Mammalian cells LD50 (μM) Raw 264.7 Macrophages (Raw 264.7 Macrophages; mouse, 48 h) [µM] | IC50 (T. cruzi trypomastigotes; Trypanosoma cruzi, Osteoblast) [µM] | other results |
| --- | --- | --- | --- |
| CCOC(=O)c1c(NC(=O)c2cccc(C(F)(F)F)c2F)sc2c1CC(C)(C)NC2(C)C [GP1-04, Ethyl 2-(2-fluoro-3-(trifluoromethyl)benzamido)-5,5,7,7-tetramethyl-4,5,6,7-tetrahydrothieno[2,3-c]pyridine-3-carboxylate] | 17 | – | – |
| CCOC(=O)c1c(NC(=O)c2ccc(F)c(C(F)(F)F)c2)sc2c1CC(C)(C)NC2(C)C [GP1-05, Ethyl 2-(4-fluoro-3-(trifluoromethyl)benzamido)-5,5,7,7-tetramethyl-4,5,6,7-tetrahydrothieno[2,3-c]pyridine-3-carboxylate] | 22 | – | – |
| CCOC(=O)c1c(N)sc2c1CC(C)(C)NC2(C)C [RS1, Ethyl 2-amino-5,5,7,7-tetramethyl-4,5,6,7-tetrahydrothieno[2,3-C]pyridine-3-carboxylate] | – | < 10 | – |
| CCOC(=O)c1c(NC(=O)c2ccc([N+](=O)[O-])s2)sc2c1CC(C)(C)NC2(C)C [RS2, ethyl 5,5,7,7-tetramethyl-2-(5-nitrothiophene-2-carboxamido)-4,5,6,7-tetrahydrothieno[2,3-c]pyridine-3-carboxylate] | ~32 | < 1.25 | T. cruzi LD50 (μM) Epimastigotes (T. cruzi Epimastigotes): ~7.5 µM |
| CCOC(=O)c1c(NC(=O)c2cccc(C(F)(F)F)c2)sc2c1CC(C)(C)NC2(C)C [RS3, Ethyl 5,5,7,7-tetramethyl-2-(3-(trifluoromethyl)benzamido)-4,5,6,7-tetrahydro-thieno[2,3-c]pyridine-3-carboxylate] | >40 | < 1.25 | – |
| CCOC(=O)c1c(NC(=O)c2c(F)c(F)c(F)c(F)c2F)sc2c1CC(C)(C)NC2(C)C [RS4, Ethyl 5,5,7,7-tetramethyl-2-(perfluorobenzamido)-4,5,6,7-tetrahydrothieno[2,3c]pyridine-3-carboxylate] | – | – | L. major LD50 (μM) Promastigotes [1]: 0.671 µM; IC50 (T. cruzi trypomastigotes): < 0.156 µM; Mammalian cells LD50 (μM) Raw 264.7 Macrophages (Raw 264.7 Macrophages; macrophage cytotoxicity, text: intraperitoneal macrophages (IPΦ) treated for 48 hrs): ~15 µM |
| CCOC(=O)c1c(NC(=O)c2ccc(C(F)(F)F)cc2)sc2c1CC(C)(C)NC2(C)C [RS5, Ethyl 5,5,7,7-tetramethyl-2-(4-(trifluoromethyl)benzamido)-4,5,6,7-tetrahydrothieno[2,3-c]pyridine-3-carboxylate] | – | 7.5 | – |
